Assay results from patent US20260262643A1, “HERBICIDAL BENZOXAZINES” (FMC CORPORATION, priority 2022, published 2026).

Legend:
[1] = test system: barnyardgrass; assay: Test A preemergence; format: in vivo, Echinochloa crusgalli; settings: 1000 g ai/ha, 0 to 100 scale (0 no effect, 100 complete control), 10 days
Summary of the method: (§1)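 Seeds in loam–sand blend received a directed preemergence soil spray of compound in non-phytotoxic solvent with surfactant; postemergence plants (2–10 cm, one- to two-leaf stage) were sprayed with the same formulation. After 10 days in greenhouse, injury was rated visually versus untreated controls, 0 (no effect) to 100 (complete control).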

[2] = test system: foxtail, giant; assay: Test A preemergence; format: in vivo, Setaria faberi; settings: 1000 g ai/ha, 0 to 100 scale (0 no effect, 100 complete control), 10 days; for pest or weed control at 1000 g/ha: Setaria faberi, pre-emergence, 240 h, read-out: Plant response rating, Foxtail, Giant
Summary of the method: as §1

[3] = test system: kochia; assay: Test A preemergence; format: in vivo, Bassia scoparia; settings: 1000 g ai/ha, 0 to 100 scale (0 no effect, 100 complete control), 10 days; for pest or weed control at 1000 g/ha: Bassia scoparia, pre-emergence, 240 h, read-out: Plant response rating, Kochia
Summary of the method: as §1

[4] = test system: Pigweed, Redroot; assay: Test A preemergence; format: in vivo, Amaranthus retroflexus; settings: 1000 g ai/ha, 0 to 100 scale (0 no effect, 100 complete control), 10 days
Summary of the method: as §1

[5] = test system: ragweed; assay: Test A preemergence; format: in vivo, Ambrosia artemisiifolia; settings: 1000 g ai/ha, 0 to 100 scale (0 no effect, 100 complete control), 10 days; for pest or weed control at 1000 g/ha: Ambrosia artemisiifolia, pre-emergence, 240 h, read-out: Plant response rating, Ragweed
Summary of the method: as §1

[6] = test system: ryegrass, Italian; assay: Test A preemergence; format: in vivo, Lolium multiflorum; settings: 1000 g ai/ha, 0 to 100 scale (0 no effect, 100 complete control), 10 days; for pest or weed control at 1000 g/ha: Lolium multiflorum, pre-emergence, 240 h, read-out: Plant response rating, Ryegrass, Italian
Summary of the method: as §1

[7] = test system: barnyardgrass; assay: Test A postemergence; format: in vivo, Echinochloa crusgalli; settings: 1000 g ai/ha, Postemergence; 0 to 100 scale
Summary of the method: as §1

[8] = test system: blackgrass; assay: Test A postemergence; format: in vivo, Alopecurus myosuroides; settings: 1000 g ai/ha, Postemergence, 0 to 100 scale; for pest or weed control at 1000 g/ha: Alopecurus myosuroides, post-emergence, 240 h, read-out: Plant response rating, Blackgrass
Summary of the method: as §1

[9] = test system: corn; assay: Test A postemergence; format: in vivo, Zea mays; settings: 1000 g ai/ha, Postemergence, 0 to 100 scale; for Corn plant response rating (crop injury, 0 = no effect, 100 = complete kill) at 1000 g/ha: Zea mays, post-emergence, 240 h
Summary of the method: as §1

[10] = test system: foxtail, giant; assay: Test A postemergence; format: in vivo, Setaria faberi; settings: 1000 g ai/ha, Postemergence, 0 to 100 scale; for pest or weed control at 1000 g/ha: Setaria faberi, post-emergence, 240 h, read-out: Plant response rating, Foxtail, Giant
Summary of the method: as §1

[11] = test system: kochia; assay: Test A postemergence; format: in vivo, Bassia scoparia; settings: 1000 g ai/ha, Postemergence, 0 to 100 scale; for pest or weed control at 1000 g/ha: Bassia scoparia, post-emergence, 240 h, read-out: Plant response rating, Kochia
Summary of the method: as §1

[12] = test system: Pigweed, Redroot; assay: Test A postemergence; format: in vivo, Amaranthus retroflexus; settings: 1000 g ai/ha, Postemergence; 0 to 100 scale
Summary of the method: as §1

[13] = test system: ragweed; assay: Test A postemergence; format: in vivo, Ambrosia artemisiifolia; settings: 1000 g ai/ha, Postemergence, 0 to 100 scale; for pest or weed control at 1000 g/ha: Ambrosia artemisiifolia, post-emergence, 240 h, read-out: Plant response rating, Ragweed
Summary of the method: as §1

[14] = test system: ryegrass, Italian; assay: Test A postemergence; format: in vivo, Lolium multiflorum; settings: 1000 g ai/ha, Postemergence, 0 to 100 scale; for pest or weed control at 1000 g/ha: Lolium multiflorum, post-emergence, 240 h, read-out: Plant response rating, Ryegrass, Italian
Summary of the method: as §1

[15] = test system: wheat; assay: Test A postemergence; format: in vivo, Triticum aestivum; settings: 1000 g ai/ha, Postemergence, 0 to 100 scale; for plant injury at 1000 g/ha: Triticum aestivum, post-emergence, 240 h, read-out: Plant response rating, Wheat
Summary of the method: as §1

[16] = test system: galium; assay: Test A postemergence; format: in vivo, Galium aparine; settings: 1000 g ai/ha, Postemergence, 0 to 100 scale; for pest or weed control at 1000 g/ha: Galium, post-emergence, 240 h, read-out: Plant response rating, Galium
Summary of the method: as §1

[17] = test system: barnyardgrass; assay: Test B flooded paddy test; format: in vivo, Echinochloa crus-galli; settings: 250 g ai/ha, Flood, 13 days, 0 to 100 scale (0 no effect, 100 complete control); for pest or weed control at 250 g/ha: Echinochloa crus-galli, 312 h, read-out: Plant response rating, Barnyardgrass
Summary of the method: (§2)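 Plants at the 2-leaf stage were flooded to 3 cm above the soil, and test compounds were applied directly into the paddy water, with that depth held throughout. After 13 days in a greenhouse, injury was rated visually against untreated controls on a 0–100 scale (100 = complete control).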

[18] = test system: ducksalad; assay: Test B flooded paddy test; format: in vivo, Heteranthera limosa; settings: 250 g ai/ha, Flood, 13 days, 0 to 100 scale (0 no effect, 100 complete control); for pest or weed control at 250 g/ha: Heteranthera limosa, 312 h, read-out: Plant response rating, Ducksalad
Summary of the method: as §2

[19] = test system: rice; assay: Test B flooded paddy test; format: in vivo, Oryza sativa; settings: 250 g ai/ha, Flood, 13 days, 0 to 100 scale (0 no effect, 100 complete control); for plant injury at 250 g/ha: Oryza sativa, 312 h, read-out: Plant response rating, Rice
Summary of the method: as §2

[20] = test system: sedge, umbrella; assay: Test B flooded paddy test; format: in vivo, Cyperus difformis; settings: 250 g ai/ha, Flood, 13 days, 0 to 100 scale (0 no effect, 100 complete control); for pest or weed control at 250 g/ha: Cyperus difformis, 312 h, read-out: Plant response rating, Sedge, Umbrella
Summary of the method: as §2

Structure (SMILES): C[C@H]1CN(C(=O)c2cccc(-n3cncn3)c2)c2cccc(Cl)c2O1 [Compound 18, [(2S)-8-Chloro-2,3-dihydro-2-methyl-4H-1,4-benzoxazin-4-yl][3-(1H-1,2,4-triazol-1-yl)phenyl]methanone]
- Plant response rating, Barnyardgrass [1]: 90
- pest or weed control at 1000 g/ha [2]: 100%
- pest or weed control at 1000 g/ha [3]: 70%
- Plant response rating, Pigweed, Redroot [4]: 100
- pest or weed control at 1000 g/ha [5]: 80%
- pest or weed control at 1000 g/ha [6]: 90%
- Plant response rating, Barnyardgrass [7]: 70
- pest or weed control at 1000 g/ha [8]: 70%
- Corn plant response rating (crop injury, 0 = no effect, 100 = complete kill) at 1000 g/ha [9]: 40%
- pest or weed control at 1000 g/ha [10]: 90%
- pest or weed control at 1000 g/ha [11]: 50%
- Plant response rating, Pigweed, Redroot [12]: 40
- pest or weed control at 1000 g/ha [13]: 20%
- pest or weed control at 1000 g/ha [14]: 80%
- plant injury at 1000 g/ha [15]: 0%
- pest or weed control at 1000 g/ha [16]: 90%
- pest or weed control at 250 g/ha [17]: 0%
- pest or weed control at 250 g/ha [18]: 0%
- plant injury at 250 g/ha [19]: 0%
- pest or weed control at 250 g/ha [20]: 0%

Structure (SMILES): CC1CN(C(=O)c2ccnc(-n3cncn3)c2)c2ccccc2O1 (stereo not drawn) [Compound 19]
- Plant response rating, Barnyardgrass [1]: 90
- Plant response rating, Foxtail, Giant [2]: 100
- Plant response rating, Kochia [3]: 60
- Plant response rating, Pigweed, Redroot [4]: 0
- Plant response rating, Ragweed [5]: 80
- Plant response rating, Ryegrass, Italian [6]: 80
- Plant response rating, Barnyardgrass [7]: 80
- Plant response rating, Blackgrass [8]: 70
- Plant response rating, Corn [9]: 50
- Plant response rating, Foxtail, Giant [10]: 60
- Plant response rating, Kochia [11]: 30
- Plant response rating, Pigweed, Redroot [12]: 40
- Plant response rating, Ragweed [13]: 0
- Plant response rating, Ryegrass, Italian [14]: 60
- Plant response rating, Wheat [15]: 70
- Plant response rating, Galium [16]: 90
- Plant response rating, Barnyardgrass [17]: 0
- Plant response rating, Ducksalad [18]: 0
- Plant response rating, Rice [19]: 0
- Plant response rating, Sedge, Umbrella [20]: 0

Structure (SMILES): O=C(c1cccc(-n2cncn2)c1)N1CC(C2CC2)Oc2c(Cl)cccc21 (stereo not drawn) [Compound 22, (8-Chloro-2-cyclopropyl-2,3-dihydro-4H-1,4-benzoxazin-4-yl)[3-(1H-1,2,4-triazol-1-yl)phenyl]methanone]
- Plant response rating, Barnyardgrass [1]: 90
- pest or weed control at 1000 g/ha [2]: 90%
- pest or weed control at 1000 g/ha [3]: 50%
- Plant response rating, Pigweed, Redroot [4]: 60
- pest or weed control at 1000 g/ha [5]: 20%
- pest or weed control at 1000 g/ha [6]: 90%
- Plant response rating, Barnyardgrass [7]: 50
- pest or weed control at 1000 g/ha [8]: 80%
- Corn plant response rating (crop injury, 0 = no effect, 100 = complete kill) at 1000 g/ha [9]: 70%
- pest or weed control at 1000 g/ha [10]: 80%
- pest or weed control at 1000 g/ha [11]: 70%
- Plant response rating, Pigweed, Redroot [12]: 60
- pest or weed control at 1000 g/ha [13]: 50%
- pest or weed control at 1000 g/ha [14]: 60%
- plant injury at 1000 g/ha [15]: 60%
- pest or weed control at 1000 g/ha [16]: 90%
- pest or weed control at 250 g/ha [17]: 0%
- pest or weed control at 250 g/ha [18]: 0%
- plant injury at 250 g/ha [19]: 0%
- pest or weed control at 250 g/ha [20]: 0%
